From patent US8802597B2, “Herbicidal pyrimidines” (E I du Pont de Nemours and Company, priority 2003, dated 2014)

Legend:
Assay type in all cases: in vivo
[1] = test system: crabgrass (Digitaria sanguinalis); assay: Test A pre/postemergence
Summary of the method: (§1)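 Visual injury scored 0–100 (0 = no effect, 100 = complete control) against untreated controls after about ten days in the greenhouse. Compounds, formulated in non-phytotoxic solvent plus surfactant, were applied preemergence as a directed soil spray and postemergence at the 1- to 2-leaf stage (2–10 cm).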

[2] = test system: velvetleaf (Abutilon theophrasti); assay: Test A pre/postemergence
Summary of the method: as §1

[3] = test system: giant foxtail (Setaria faberi); assay: Test A pre/postemergence
Summary of the method: as §1

[4] = test system: redroot pigweed (Amaranthus retroflexus); assay: Test A pre/postemergence
Summary of the method: as §1

[5] = test system: morningglory (Ipomoea spp.); assay: Test A pre/postemergence
Summary of the method: as §1

[6] = test system: barnyardgrass (Echinochloa crus-galli); assay: Test A pre/postemergence
Summary of the method: as §1

[7] = test system: junglerice (Echinochloa colona); assay: Test E flooded paddy water application; details: Flood, 21 days, scale 0 to 100 (0 no effect, 100 complete control); for Plant response rating, Junglerice: 16 g ai/ha
Summary of the method: (§2)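 Greenhouse pots of Tama silt loam with weeds and rice at 2.0–2.5-leaf stage, flooded to 3 cm; compounds applied directly into paddy water, depth maintained. Visual rating versus untreated controls after 21 days, 0 (no effect) to 100 (complete control); 29.5/26.7 °C, 16-h photoperiod.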

[8] = test system: rice flatsedge (Cyperus iria); assay: Test E flooded paddy water application; details: Flood, 21 days, scale 0 to 100 (0 no effect, 100 complete control); for Plant response rating, Flatsedge, Rice: 16 g ai/ha
Summary of the method: as §2

[9] = test system: transplanted rice seedlings (Oryza sativa cv. ‘Japonica-M202’); assay: Test E flooded paddy water application; details: Flood, 21 days, scale 0 to 100 (0 no effect, 100 complete control); for Plant response rating, Rice, Transplanted: 16 g ai/ha
Summary of the method: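 Response scored visually on a 0–100 scale (100 = complete control) at 21 days against untreated pots. Treatment was into paddy water 3 cm deep over silt loam, with plants at the 2.0–2.5-leaf stage, grown under 16-h light at 29.5/26.7 °C day/night.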

[10] = test system: bearded (brdd.) sprangletop (Leptochloa fusca ssp. fascicularis); assay: Test E flooded paddy water application; details: Flood, 21 days, scale 0 to 100 (0 no effect, 100 complete control)
Summary of the method: as §2

[11] = test system: water seeded rice seedlings (Oryza sativa cv. ‘Japonica-M202’); assay: Test E flooded paddy water application; details: Flood, 21 days, scale 0 to 100 (0 no effect, 100 complete control); for Plant response rating, Rice, Water Seeded: 16 g ai/ha
Summary of the method: as §2

[12] = test system: ducksalad (Heteranthera limosa); assay: Test E flooded paddy water application; details: Flood, 21 days, scale 0 to 100 (0 no effect, 100 complete control); for Plant response rating, Ducksalad: 16 g ai/ha
Summary of the method: as §2

[13] = test system: late watergrass (Echinochloa oryzicola); assay: Test E flooded paddy water application; details: Flood, 21 days, scale 0 to 100 (0 no effect, 100 complete control); for Plant response rating, Watergrass, Late: 16 g ai/ha
Summary of the method: as §2

[14] = test system: early watergrass (Echinochloa oryzoides); assay: Test E flooded paddy water application; details: Flood, 21 days, scale 0 to 100 (0 no effect, 100 complete control); for Plant response rating, Watergrass, Early: 16 g ai/ha
Summary of the method: as §2

[15] = test system: purple redstem (Ammannia coccinea); assay: Test E flooded paddy water application; details: Flood, 21 days, scale 0 to 100 (0 no effect, 100 complete control); for Plant response rating, Redstem: 16 g ai/ha
Summary of the method: as §2

[16] = test system: smallflower umbrella sedge (Cyperus difformis); assay: Test E flooded paddy water application; details: Flood, 21 days, scale 0 to 100 (0 no effect, 100 complete control); for Plant response rating, Sedge, Umbrella: 16 g ai/ha
Summary of the method: as §2

[17] = test system: barnyardgrass (Echinochloa crus-galli); assay: Test E flooded paddy water application; details: Flood, 21 days, scale 0 to 100 (0 no effect, 100 complete control); for Plant response rating, Barnyardgrass: 16 g ai/ha
Summary of the method: as §2

[18] = Postemergence, 125 g ai/ha, 0 to 100 scale (0 no effect, 100 complete control)
[19] = Postemergence, 500 g ai/ha, 0 to 100 scale (0 no effect, 100 complete control)
[20] = Preemergence, 125 g ai/ha, 0 to 100 scale where 0 is no effect and 100 is complete control, approximately ten days
[21] = Preemergence, 500 g ai/ha, 0 to 100 scale where 0 is no effect and 100 is complete control, approximately ten days

CCOC(=O)c1nc(-c2ccc(C)c(C)c2)nc(N)c1Br [Compound 70]
10: Plant response rating, Pigweed [4, 21] | Plant response rating, Morningglory [5, 19]
30: Flatsedge, Rice plant response rating ([8]; 125 g ai/ha)
20: Plant response rating, Crabgrass [1, 19] | Plant response rating, Crabgrass [1, 21] | Plant response rating, Velvetleaf [2, 20] | Plant response rating, Pigweed [4, 19]
60: Plant response rating, Velvetleaf [2, 19] | Sedge, Umbrella plant response rating ([16]; 250 g ai/ha)
40: Ducksalad plant response rating ([12]; 32 g ai/ha)
100: Ducksalad plant response rating ([12]; 64 g ai/ha) | Ducksalad plant response rating ([12]; 125 g ai/ha) | Ducksalad plant response rating ([12]; 250 g ai/ha)
0: Plant response rating, Crabgrass [1, 18] | Plant response rating, Foxtail, Giant [3, 18] | Plant response rating, Foxtail, Giant [3, 19] | Plant response rating, Pigweed [4, 20] | Plant response rating, Morningglory [5, 18] | Plant response rating, Morningglory [5, 20] | Plant response rating, Morningglory [5, 21] | Plant response rating, Barnyardgrass [6, 18] | Plant response rating, Barnyardgrass [6, 19] | Plant response rating, Barnyardgrass [6, 20] | Plant response rating, Barnyardgrass [6, 21] | Junglerice plant response rating ([7]; 32 g ai/ha) | Junglerice plant response rating ([7]; 64 g ai/ha) | Junglerice plant response rating ([7]; 125 g ai/ha) | Junglerice plant response rating ([7]; 250 g ai/ha) | Plant response rating, Junglerice [7] | Flatsedge, Rice plant response rating ([8]; 32 g ai/ha) | Flatsedge, Rice plant response rating ([8]; 64 g ai/ha) | Plant response rating, Flatsedge, Rice [8] | Rice, Transplanted plant response rating ([9]; 32 g ai/ha) | Rice, Transplanted plant response rating ([9]; 64 g ai/ha) | Rice, Transplanted plant response rating ([9]; 125 g ai/ha) | Rice, Transplanted plant response rating ([9]; 250 g ai/ha) | Plant response rating, Rice, Transplanted [9] | Sprangletop, Brdd. plant response rating ([10]; 32 g ai/ha) | Sprangletop, Brdd. plant response rating ([10]; 64 g ai/ha) | Sprangletop, Brdd. plant response rating ([10]; 125 g ai/ha) | Sprangletop, Brdd. plant response rating ([10]; 250 g ai/ha) | Plant response rating, Sprangletop, Brdd. ([10]; 16 g ai/ha) | Rice, Water Seeded plant response rating ([11]; 32 g ai/ha) | Rice, Water Seeded plant response rating ([11]; 64 g ai/ha) | Rice, Water Seeded plant response rating ([11]; 125 g ai/ha) | Rice, Water Seeded plant response rating ([11]; 250 g ai/ha) | Plant response rating, Rice, Water Seeded [11] | Plant response rating, Ducksalad [12] | Watergrass, Late plant response rating ([13]; 32 g ai/ha) | Watergrass, Late plant response rating ([13]; 64 g ai/ha) | Watergrass, Late plant response rating ([13]; 125 g ai/ha) | Watergrass, Late plant response rating ([13]; 250 g ai/ha) | Plant response rating, Watergrass, Late [13] | Watergrass, Early plant response rating ([14]; 32 g ai/ha) | Watergrass, Early plant response rating ([14]; 64 g ai/ha) | Watergrass, Early plant response rating ([14]; 125 g ai/ha) | Watergrass, Early plant response rating ([14]; 250 g ai/ha) | Plant response rating, Watergrass, Early [14] | Redstem plant response rating ([15]; 32 g ai/ha) | Redstem plant response rating ([15]; 64 g ai/ha) | Redstem plant response rating ([15]; 125 g ai/ha) | Redstem plant response rating ([15]; 250 g ai/ha) | Plant response rating, Redstem [15] | Sedge, Umbrella plant response rating ([16]; 32 g ai/ha) | Sedge, Umbrella plant response rating ([16]; 64 g ai/ha) | Sedge, Umbrella plant response rating ([16]; 125 g ai/ha) | Plant response rating, Sedge, Umbrella [16] | Barnyardgrass plant response rating ([17]; 32 g ai/ha) | Barnyardgrass plant response rating ([17]; 64 g ai/ha) | Barnyardgrass plant response rating ([17]; 125 g ai/ha) | Barnyardgrass plant response rating ([17]; 250 g ai/ha) | Plant response rating, Barnyardgrass [17]
65: Flatsedge, Rice plant response rating ([8]; 250 g ai/ha)
15: Plant response rating, Pigweed [4, 18]
5: Plant response rating, Crabgrass [1, 20] | Plant response rating, Foxtail, Giant [3, 20] | Plant response rating, Foxtail, Giant [3, 21]
35: Plant response rating, Velvetleaf [2, 18] | Plant response rating, Velvetleaf [2, 21]

CCOC(=O)c1nc(-c2ccc(C)c(C)c2)nc(N)c1Cl [Compound 71]
45: Junglerice plant response rating ([7]; 250 g ai/ha)
55: Plant response rating, Velvetleaf [2, 19]
50: Plant response rating, Velvetleaf [2, 21]
40: Plant response rating, Velvetleaf [2, 18]
70: Sedge, Umbrella plant response rating ([16]; 250 g ai/ha)
15: Plant response rating, Pigweed [4, 21]
100: Ducksalad plant response rating ([12]; 32 g ai/ha) | Ducksalad plant response rating ([12]; 64 g ai/ha) | Ducksalad plant response rating ([12]; 125 g ai/ha) | Ducksalad plant response rating ([12]; 250 g ai/ha) | Plant response rating, Ducksalad [12]
0: Plant response rating, Crabgrass [1, 18] | Plant response rating, Crabgrass [1, 20] | Plant response rating, Crabgrass [1, 21] | Plant response rating, Foxtail, Giant [3, 18] | Plant response rating, Foxtail, Giant [3, 19] | Plant response rating, Foxtail, Giant [3, 20] | Plant response rating, Foxtail, Giant [3, 21] | Plant response rating, Pigweed [4, 20] | Plant response rating, Morningglory [5, 18] | Plant response rating, Morningglory [5, 19] | Plant response rating, Morningglory [5, 20] | Plant response rating, Morningglory [5, 21] | Plant response rating, Barnyardgrass [6, 18] | Plant response rating, Barnyardgrass [6, 19] | Plant response rating, Barnyardgrass [6, 20] | Plant response rating, Barnyardgrass [6, 21] | Junglerice plant response rating ([7]; 32 g ai/ha) | Junglerice plant response rating ([7]; 64 g ai/ha) | Junglerice plant response rating ([7]; 125 g ai/ha) | Plant response rating, Junglerice [7] | Flatsedge, Rice plant response rating ([8]; 32 g ai/ha) | Flatsedge, Rice plant response rating ([8]; 64 g ai/ha) | Flatsedge, Rice plant response rating ([8]; 125 g ai/ha) | Flatsedge, Rice plant response rating ([8]; 250 g ai/ha) | Plant response rating, Flatsedge, Rice [8] | Rice, Transplanted plant response rating ([9]; 32 g ai/ha) | Rice, Transplanted plant response rating ([9]; 64 g ai/ha) | Rice, Transplanted plant response rating ([9]; 125 g ai/ha) | Rice, Transplanted plant response rating ([9]; 250 g ai/ha) | Plant response rating, Rice, Transplanted [9] | Sprangletop, Brdd. plant response rating ([10]; 32 g ai/ha) | Sprangletop, Brdd. plant response rating ([10]; 125 g ai/ha) | Rice, Water Seeded plant response rating ([11]; 32 g ai/ha) | Rice, Water Seeded plant response rating ([11]; 64 g ai/ha) | Rice, Water Seeded plant response rating ([11]; 125 g ai/ha) | Rice, Water Seeded plant response rating ([11]; 250 g ai/ha) | Plant response rating, Rice, Water Seeded [11] | Watergrass, Late plant response rating ([13]; 32 g ai/ha) | Watergrass, Late plant response rating ([13]; 64 g ai/ha) | Watergrass, Late plant response rating ([13]; 125 g ai/ha) | Watergrass, Late plant response rating ([13]; 250 g ai/ha) | Plant response rating, Watergrass, Late [13] | Watergrass, Early plant response rating ([14]; 32 g ai/ha) | Watergrass, Early plant response rating ([14]; 64 g ai/ha) | Watergrass, Early plant response rating ([14]; 125 g ai/ha) | Watergrass, Early plant response rating ([14]; 250 g ai/ha) | Plant response rating, Watergrass, Early [14] | Redstem plant response rating ([15]; 32 g ai/ha) | Redstem plant response rating ([15]; 64 g ai/ha) | Redstem plant response rating ([15]; 125 g ai/ha) | Plant response rating, Redstem [15] | Sedge, Umbrella plant response rating ([16]; 32 g ai/ha) | Sedge, Umbrella plant response rating ([16]; 64 g ai/ha) | Plant response rating, Sedge, Umbrella [16] | Barnyardgrass plant response rating ([17]; 32 g ai/ha) | Barnyardgrass plant response rating ([17]; 64 g ai/ha) | Barnyardgrass plant response rating ([17]; 125 g ai/ha) | Plant response rating, Barnyardgrass [17]
5: Plant response rating, Crabgrass [1, 19] | Plant response rating, Pigweed [4, 18]
60: Sprangletop, Brdd. plant response rating ([10]; 250 g ai/ha) | Barnyardgrass plant response rating ([17]; 250 g ai/ha)
30: Plant response rating, Velvetleaf [2, 20] | Plant response rating, Pigweed [4, 19] | Redstem plant response rating ([15]; 250 g ai/ha) | Sedge, Umbrella plant response rating ([16]; 125 g ai/ha)
